Among the data in publication PMC8757608 (Journal of Enzyme Inhibition and Medicinal Chemistry, 2022) are inhibition values, retold here.

One test concerns K-562 (leukemia). Put plainly: NCI-60 single dose screen, K-562. It counts as cell-based. As to conditions: Homo sapiens, K562, read-out: percent growth inhibition.
The next test has as its system HL60(TB) (leukemia). The test is described as follows: NCI-60 single dose screen, HL60. It counts as cell-based. To be noted: Homo sapiens, HL-60, read-out: percent growth inhibition.

As a reminder, the inhibition is the drop in the measured response relative to a control, in per cent. In the case of `Cc1cc(=O)[nH]c(=O)n1Cc1cn(-c2c3ccccc3nc3ccccc23)nn1` [Compound 8, 1-((1-(Acridin-9-yl)-1H-1,2,3-triazol-4-yl)methyl)-6-methylpyrimidine-2,4(1H,3H)-dione], the inhibition at 10 µM with K-562 (leukemia) is 83.7%; with HL60(TB) (leukemia), 92.9%.
